For 13 compounds, IC50 results are on record in patent US20240092779A1, “USP1 INHIBITORS AND USES THEREOF” (Zentaur Therapeutics USA Inc., priority 2022, published 2024).

Where only a bound is given, the exact number is not on record here.

As usually defined, the IC50 is the midpoint of a concentration-inhibition curve.

The target in one assay is T1, recombinant USP1/UAF1 enzyme complex (Homo sapiens, UniProt O94782).
T1 construct: purchased Biortus
T1 sequence (O94782 whole entry): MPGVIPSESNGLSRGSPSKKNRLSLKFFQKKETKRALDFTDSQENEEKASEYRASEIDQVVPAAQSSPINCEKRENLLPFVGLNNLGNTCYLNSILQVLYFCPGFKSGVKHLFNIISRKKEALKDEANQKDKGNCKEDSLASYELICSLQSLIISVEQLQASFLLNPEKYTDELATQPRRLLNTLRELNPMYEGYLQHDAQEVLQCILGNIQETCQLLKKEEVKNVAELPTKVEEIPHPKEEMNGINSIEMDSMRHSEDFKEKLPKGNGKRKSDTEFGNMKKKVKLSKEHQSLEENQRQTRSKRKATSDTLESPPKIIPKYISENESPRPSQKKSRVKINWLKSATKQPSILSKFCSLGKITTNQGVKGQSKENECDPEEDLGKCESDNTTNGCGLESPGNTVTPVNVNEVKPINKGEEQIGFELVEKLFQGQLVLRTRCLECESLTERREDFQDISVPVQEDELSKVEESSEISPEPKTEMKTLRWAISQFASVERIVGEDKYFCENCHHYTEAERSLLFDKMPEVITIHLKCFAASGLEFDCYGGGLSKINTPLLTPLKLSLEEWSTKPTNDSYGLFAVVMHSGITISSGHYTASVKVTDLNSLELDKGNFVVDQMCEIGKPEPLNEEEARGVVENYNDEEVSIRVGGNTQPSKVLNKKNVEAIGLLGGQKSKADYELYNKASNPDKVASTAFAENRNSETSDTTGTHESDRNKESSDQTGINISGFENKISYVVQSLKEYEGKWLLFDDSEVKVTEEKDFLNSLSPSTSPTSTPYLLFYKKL
T1 sequence (Q8TAF3 whole entry partner): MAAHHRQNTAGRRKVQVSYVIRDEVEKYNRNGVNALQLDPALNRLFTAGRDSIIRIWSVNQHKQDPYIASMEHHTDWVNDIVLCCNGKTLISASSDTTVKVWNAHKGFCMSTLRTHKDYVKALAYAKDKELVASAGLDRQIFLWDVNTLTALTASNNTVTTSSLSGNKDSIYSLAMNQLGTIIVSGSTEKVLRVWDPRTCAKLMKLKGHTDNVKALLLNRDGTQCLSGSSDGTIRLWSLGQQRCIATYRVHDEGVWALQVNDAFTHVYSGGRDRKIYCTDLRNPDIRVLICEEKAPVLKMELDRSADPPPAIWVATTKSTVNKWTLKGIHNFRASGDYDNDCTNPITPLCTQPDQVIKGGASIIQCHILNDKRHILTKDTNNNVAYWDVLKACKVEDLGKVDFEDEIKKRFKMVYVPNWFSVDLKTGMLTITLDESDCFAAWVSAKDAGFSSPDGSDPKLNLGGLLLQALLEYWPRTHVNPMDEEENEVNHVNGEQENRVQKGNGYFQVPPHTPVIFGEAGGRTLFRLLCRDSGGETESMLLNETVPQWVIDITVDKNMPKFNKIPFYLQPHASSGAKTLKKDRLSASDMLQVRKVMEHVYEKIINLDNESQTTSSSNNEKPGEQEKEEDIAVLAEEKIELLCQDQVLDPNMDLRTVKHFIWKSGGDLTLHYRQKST
Put plainly: Enzyme assay: deubiquitinase fluorometric assay with ubiquitin-Rhodamine substrate. Type of assay: biochemical. The note with it: USP1/UAF1, Ub-Rho110 substrate, 2 hours preincubation, 1 hour reaction. The method, then:
Enzymatic inhibitory potency of the compounds was assessed in a deubiquitinase fluorometric assay using ubiquitin-Rhodamine (Ub-Rho110, R&D Systems) as substrate and the recombinant USP1/UAF1 enzyme complex (Biortus). Assays were performed in a final volume of 12 μL using black 384-well plates (Corning #4514) containing 50 mM HEPES (pH 7.5, BioRoYee), 0.5 mM EDTA, 1 mM dithiothreitol, 0.1 mg/mL bovine serum albumin, 50 nM Ub-Rhol10, 0.004 nM USP1/UAF1, and series diluted compounds from 10 μM to 0.5 nM (10 dilution steps). Assay-ready plates containing 40 nL of Echo-dispensed compound in DMSO were reconstituted with 2 μL of ddH2O, then 5 μL of USP1/UAF1 enzyme mixture was added and preincubated at room temperature for 2 hours. Enzymatic reaction was initiated by the addition of […] substrate mixture and assay allowed to proceed for 1 hour at room temperature before quenching with 3 μL of 150 mM citric acid. Fluorescence signal was detected via TECAN SPARK with excitation at 485 nm and emission at 535 nm. Data analysis was done using GraphPad Prism8 and IC50 values were obtained by 4-parameter logistic curve fitting.
Certain compounds were tested in the assays.
Take `COc1ncnc(C2CC2)c1-c1ncc2ccc(=O)n(Cc3ccc(-c4cccc(C(F)(F)F)n4)cc3)c2n1` [Compound I-36, 2-(4-cyclopropyl-6-methoxypyrimidin-5-yl)-8-({4-[6-(trifluoromethyl)pyridin-2-yl]phenyl}methyl)pyrido[2,3-d]pyrimidin-7-one]: the IC50 was in the range of 10 to 100 nM.
Still for that read-out and setting: then `COc1ncnc(C2CC2)c1-c1ncc2ccc(=O)n(Cc3ccc(-c4nc(C(F)(F)F)cn4C(C)C)cc3)c2c1F` [Compound I-27, 7-(4-cyclopropyl-6-methoxypyrimidin-5-yl)-8-fluoro-1-({4-[1-isopropyl-4-(trifluoromethyl)imidazol-2-yl]phenyl}methyl)-1,6-naphthyridin-2-one], with 10 to 100 nM.

The test system of the next assay is HCC1806 Ub-PCNA (USP1). Briefly: USP1 Western Blot Protocol (HCC1806 Ub-PCNA). The assay is classed as cell-based. The settings on record: Homo sapiens, HCC1806 cells, 4 hours. The method, boiled down:
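HCC1806 cells seeded overnight, then treated 4 h at 37 °C with a 5-point, 4-fold dilution series (0.1% DMSO). Lysates immunoblotted for Ub-PCNA with fluorescent detection; inhibition expressed as % vehicle from Ub-PCNA upregulation, IC50 by four-parameter logistic fit.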
As for `COc1ncnc(C2CC2)c1-c1nc(C)c2cc(C3CCN(C)CC3)c(=O)n(Cc3ccc(-c4nc(C(F)(F)F)cn4C4CC4)cc3)c2n1` [Compound I-157, 8-({4-[1-Cyclopropyl-4-(Trifluoromethyl)Imidazol-2-Yl]Phenyl}Methyl)-2-(4-Cyclopropyl-6-Methoxypyrimidin-5-Yl)-4-Methyl-6-(1-Methylpiperidin-4-Yl)Pyrido[2,3-d]Pyrimidin-7-One], the IC50 is under 10 nM.
Still for that read-out and setting: the same measure for `COc1ncnc(C2CC2)c1-c1ncc2cc(-c3cn(C)nn3)c(=O)n(Cc3ccc(-c4nc(C(F)(F)F)cn4C4CC4)cc3)c2n1` [Compound I-150]: under 10 nM.
On the same count and under the same terms, the same measure for `COc1cc(Cn2c(=O)ccc3c(C)nc(-c4c(OC)ncnc4C4CC4)nc32)cc(F)c1-c1nc(C(F)(F)F)cn1C1CC1` [Compound I-163]: under 10 nM; for `COc1ncnc(C2CC2)c1-c1nc(C)c2cc(-c3cnn(C)c3)c(=O)n(Cc3ccc(-c4nc(C(F)(F)F)cn4C4CC4)cc3)c2n1` [Compound I-148, 8-({4-[1-Cyclopropyl-4-(Trifluoromethyl)Imidazol-2-Yl]Phenyl}Methyl)-2-(4-Cyclopropyl-6-Methoxypyrimidin-5-Yl)-4-Methyl-6-(1-Methylpyrazol-4-Yl)Pyrido[2,3-d]Pyrimidin-7-One]: under 10 nM.
The compound `COc1ncnc(C2CC2)c1-c1ncc2cc(-c3ncnn3C)c(=O)n(Cc3ccc(-c4nc(C(F)(F)F)cn4C(C)C)cc3)c2n1` [Compound I-168, 2-(4-Cyclopropyl-6-Methoxypyrimidin-5-Yl)-8-({4-[1-Isopropyl-4-(Trifluoromethyl)Imidazol-2-Yl]Phenyl}Methyl)-6-(2-Methyl-1,2,4-Triazol-3-Yl)Pyrido[2,3-d]Pyrimidin-7-One] showed an IC50 of under 10 nM.
In turn, `COc1ncnc(C2CC2)c1-c1ncc2cc(-c3cnn(C)n3)c(=O)n(Cc3ccc(-c4nc(C(F)(F)F)cn4C4CC4)cc3)c2n1` [Compound I-151] registered an IC50 of under 10 nM.
Still for that read-out and setting: then `COc1ncnc(C2CC2)c1-c1ncc2cc(-c3c(C)noc3C)c(=O)n(Cc3ccc(-c4nc(C(F)(F)F)cn4C4CC4)cc3)c2n1` [Compound I-155], with under 10 nM.
On the same count and under the same terms, then `COc1ncnc(C2CC2)c1-c1ncc2ccc(=O)n(Cc3ccc(-c4cccc(C(F)(F)F)n4)cc3)c2n1` [Compound I-36, 2-(4-cyclopropyl-6-methoxypyrimidin-5-yl)-8-({4-[6-(trifluoromethyl)pyridin-2-yl]phenyl}methyl)pyrido[2,3-d]pyrimidin-7-one], with 10 to 100 nM.
Same read-out and setting: then `COc1ncnc(C2CC2)c1-c1nc(C)c2cc(-c3ncnn3C)c(=O)n(Cc3ccc(-c4nc(C(F)(F)F)cn4C4CC4)cc3)c2n1` [Compound I-167, 8-({4-[1-Cyclopropyl-4-(Trifluoromethyl)Imidazol-2-Yl]Phenyl}Methyl)-2-(4-Cyclopropyl-6-Methoxypyrimidin-5-Yl)-4-Methyl-6-(2-Methyl-1,2,4-Triazol-3-Yl)Pyrido[2,3-d]Pyrimidin-7-One], with 10 to 100 nM; and `COc1cc(Cn2c(=O)ccc3c(C)nc(-c4c(OC)ncnc4C4CC4)nc32)ccc1-c1nc(C(F)(F)F)cn1C1CC1` [Compound I-152, 8-({4-[1-cyclopropyl-4-(trifluoromethyl)imidazo]-2-yl]-3-methoxyphenylmethyl)-2-(4-cyclopropyl-6-methoxypyrimidin-5-yl)-4-methylpyrido[2,3-d]pyrimidin-7-one], with under 10 nM.
Take `COc1ncnc(C2CC2)c1-c1ncc2ccc(=O)n(Cc3ccc(-c4nc(C(F)(F)F)cn4C(C)C)cc3)c2c1F` [Compound I-27, 7-(4-cyclopropyl-6-methoxypyrimidin-5-yl)-8-fluoro-1-({4-[1-isopropyl-4-(trifluoromethyl)imidazol-2-yl]phenyl}methyl)-1,6-naphthyridin-2-one]: the IC50 was in the range of 10 to 100 nM.
Still for that read-out and setting: then `COc1ncnc(C2CC2)c1-c1ncc2cc(-c3ncn(C)n3)c(=O)n(Cc3ccc(-c4nc(C(F)(F)F)cn4C4CC4)cc3)c2n1` [Compound I-153, 8-({4-[1-cyclopropyl-4-(trifluoromethyl)imidazo]-2-yl]phenylmethyl)-2-(4-cyclopropyl-6-methoxypyrimidin-5-yl)-6-(1-methyl-1,2,4-triazol-3-yl)pyrido[2,3-d]pyrimidin-7-one], with under 10 nM.
On the same count and under the same terms, then `COc1ncnc(C2CC2)c1-c1ncc2cc(-c3ncnn3C)c(=O)n(Cc3ccc(-c4nc(C(F)(F)F)cn4C4CC4)cc3)c2n1` [Compound I-156], with 10 to 100 nM.
